# Experimental data taken from patent publication US20070208062A1, “3-(4-(2-DIHYDROISOXAZOL-3-YLPYRIDIN-5-YL)PHENYL)-5-TRIAZOL-1-YLMETHYLOXAZOLIDIN-2-ONE DERIVATIVES AS MAO INHIBITORS FOR THE TREATMENT OF BACTERIAL INFECTIONS” (ASTRAZENECA AB, priority 2004, published 2007).
# Where a name gives a salt, the structure may show the parent alone.
# How the values were obtained:
# [1] = system: Staphylococcus aureus MSQS (methicillin sensitive and quinolone sensitive); test: MIC by agar-dilution, Staphylococcus aureus MSQS; format: cell-based; details: inoculum 10^4 CFU/spot, 37° C., 24 hours
# Experimental: (§1) The following results were obtained on a standard in-vitro test system. The activity is described in terms of the minimum inhibitory concentration (MIC) determined by the agar-dilution technique with an inoculum size of 10^4 CFU/spot. Typically, compounds are active in the range 0.01 to 256 μg/ml.
# (§2) Staphylococci were tested on agar, using an inoculum of 10^4 CFU/spot and an incubation temperature of 37° C. for 24 hours—standard test conditions for the expression of methicillin resistance.
# [2] = system: Staphylococcus aureus MRQR (methicillin resistant and quinolone resistant); test: MIC by agar-dilution, Staphylococcus aureus MRQR; format: cell-based; details: inoculum 10^4 CFU/spot, 37° C., 24 hours
# Experimental: as §1, §2
# Streptococcus pneumoniae = test: MIC, Streptococcus pneumoniae; format: cell-based; details: agar with 5% defibrinated horse blood, 5% carbon dioxide, 48 hours
# Experimental: as §1
# (§3) Streptococci and enterococci were tested on agar supplemented with 5% defibrinated horse blood, an inoculum of 10^4 CFU/spot and an incubation temperature of 37° C. in an atmosphere of 5% carbon dioxide for 48 hours—blood is required for the growth of some of the test organisms. Fastidious Gram negative organisms were tested in Mueller-Hinton broth, supplemented with hemin and NAD, grown aerobically for 24 hours at 37° C., and with an inoculum of 5×10^4 CFU/well.
# Haemophilus influenzae = test: MIC, Haemophilus influenzae; format: cell-based; details: Mueller-Hinton broth with hemin and NAD, 24 hours, 5×10^4 CFU/well
# Experimental: as §1, §3
# Moraxella catarrhalis = test: MIC, Moraxella catarrhalis; format: cell-based; details: Mueller-Hinton broth with hemin and NAD, 24 hours, 5×10^4 CFU/well
# Experimental: as §1, §3
# [3] = system: Linezolid Resistant Streptococcus pneumoniae; test: MIC, Linezolid Resistant Streptococcus pneumoniae; format: cell-based; details: agar with 5% defibrinated horse blood, 5% carbon dioxide, 48 hours
# Experimental: as §1, §3
# MAO-A = biological target: T1, MAO-A (Homo sapiens, UniProt P21397); test: MAO-A standard in-vitro assay, human liver enzyme expressed in yeast; format: biochemical; details: read-out: Ki against MAO-A
# T1 construct: made in house; host or cells: yeast
# T1 sequence (P21397 1-527): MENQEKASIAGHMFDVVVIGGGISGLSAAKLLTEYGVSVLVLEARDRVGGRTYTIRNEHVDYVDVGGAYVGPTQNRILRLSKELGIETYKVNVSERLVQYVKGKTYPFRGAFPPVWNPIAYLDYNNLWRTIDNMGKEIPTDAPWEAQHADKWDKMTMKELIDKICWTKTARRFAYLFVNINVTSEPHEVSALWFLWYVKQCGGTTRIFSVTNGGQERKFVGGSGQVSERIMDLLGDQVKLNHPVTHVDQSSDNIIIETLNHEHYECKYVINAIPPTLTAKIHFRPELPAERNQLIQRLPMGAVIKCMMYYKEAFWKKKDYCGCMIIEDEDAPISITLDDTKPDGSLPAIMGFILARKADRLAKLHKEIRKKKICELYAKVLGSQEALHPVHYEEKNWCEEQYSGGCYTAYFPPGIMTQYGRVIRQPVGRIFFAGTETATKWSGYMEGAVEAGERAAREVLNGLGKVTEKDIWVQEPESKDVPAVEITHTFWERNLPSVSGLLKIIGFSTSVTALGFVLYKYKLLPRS
# Experimental: The activity of the compounds of the invention against MAO-A was tested using a standard in-vitro assay based on human liver enzyme expressed in yeast as described in Biochem. Biophys. Res. Commun. 1991, 181, 1084-1088.
# [4] = system: Staphylococci, Streptococci, enterococci, fastidious Gram negative organisms; test: standard in-vitro test system, antibacterial activity (MIC); format: cell-based; details: result in words
# Source text: The pharmaceutically-acceptable compounds of the present invention are useful antibacterial agents having a good spectrum of activity in vitro against standard Gram-positive organisms, which are used to screen for activity against pathogenic bacteria. […] The antibacterial spectrum and potency of a particular compound may be determined in a standard test system.
# as §1, §2, §3
Structure (SMILES),melting point [°C],other results
"CC[C@H](C)[C@H](N)C(=O)OCCOC[C@@H]1CC(c2ccc(-c3ccc(N4C[C@H](Cn5ccnn5)OC4=O)cc3F)cn2)=NO1 (as salt: HCl) [Example 17, 2-{[(5S)-3-(5-{2-Fluoro-4-[(5R)-2-oxo-5-(1H-1,2,3-triazol-1-ylmethyl)-1,3-oxazolidin-3-yl]phenyl}pyridin-2-yl)-4,5-dihydroisoxazole-5-yl]methoxy}ethyl L-isoleucinate]",119,–
CN(C)CC(O)COC[C@@H]1CC(c2ccc(-c3ccc(N4C[C@H](Cn5ccnn5)OC4=O)cc3F)cn2)=NO1 (some centres unmarked) (as salt: hydrochloride) [Example 19],110 to 115,–
"O=C1OC(Cn2ccnn2)CN1c1ccc(-c2ccc(C3=NO[C@H](COCCN4CCOCC4)C3)nc2)c(F)c1 (stereo in doubt) [Example 10, (5S)-3-[3-Fluoro-4-(6-{(5S)-5-[(2-morpholin-4-ylethoxy)methyl]-4,5-dihydroisoxazole-3-yl}pyridin-3-yl)phenyl]-5-(1H-1,2,3-triazol-1-ylmethyl)-1,3-oxazolidin-2-one]",171,–
"O=C(O)COC[C@@H]1CC(c2ccc(-c3ccc(N4C[C@H](Cn5ccnn5)OC4=O)cc3F)cn2)=NO1 [Example 3, {[(5S)-3-(5-{2-Fluoro-4-[(5R)-2-oxo-5-(1H-1,2,3-triazol-1-ylmethyl)-1,3-oxazolidin-3-yl]phenyl}pyridin-2-yl)-4,5-dihydroisoxazole-5-yl]methoxy}acetic acid]",190,–
"CNC(=O)COC[C@@H]1CC(c2ccc(-c3ccc(N4C[C@H](Cn5ccnn5)OC4=O)cc3F)cn2)=NO1 [Example 4, 2-{[(5S)-3-(5-{2-Fluoro-4-[(5R)-2-oxo-5-(1H-1,2,3-triazol-1-ylmethyl)-1,3-oxazolidin-3-yl]phenyl}pyridin-2-yl)-4,5-dihydroisoxazole-5-yl]methoxy}-N-methylacetamide]",153 to 156,MIC [1]: 0.25 µg/mL; MIC [2]: 0.5 µg/mL; MIC (Streptococcus pneumoniae): 0.06 µg/mL; MIC (Haemophilus influenzae): 8 µg/mL; MIC (Moraxella catarrhalis): 0.5 µg/mL; MIC [3]: 1 µg/mL; Ki (MAO-A): 8 µM
"CN(C)C(=O)COC[C@@H]1CC(c2ccc(-c3ccc(N4C[C@H](Cn5ccnn5)OC4=O)cc3F)cn2)=NO1 [Example 5, 2-{[(5S)-3-(5-{2-Fluoro-4-[(5R)-2-oxo-5-(1H-1,2,3-triazol-1-ylmethyl)-1,3-oxazolidin-3-yl]phenyl}pyridin-2-yl)-4,5-dihydroisoxazole-5-yl]methoxy}-N,N-dimethylacetamide]",166 to 168,–
"CN1CCN(C(=O)COC[C@@H]2CC(c3ccc(-c4ccc(N5C[C@H](Cn6ccnn6)OC5=O)cc4F)cn3)=NO2)CC1 [Example 6, (5R)-3-{3-Fluoro-4-[6-((5S)-5-{[2-(4-methylpiperazin-1-yl)-2-oxoethoxy]methyl}-4,5-dihydroisoxazole-3-yl)pyridin-3-yl]phenyl}-5-(1H-1,23-triazol-1-ylmethyl)-1,3-oxazolidin-2-one]",165 to 175,–
"O=C1O[C@@H](Cn2ccnn2)CN1c1ccc(-c2ccc(C3=NO[C@H](COCCCO)C3)nc2)c(F)c1 [Example 7, (5R)-3-[3-Fluoro-4-(6-{(5S)-5-[(3-hydroxypropoxy)methyl]-4,5-dihydroisoxazole-3-yl}pyridin-3-yl)phenyl]-5-(1H-1,23-triazol-1-ylmethyl)-1,3-oxazolidin-2-one]",176,–
O=C1O[C@@H](Cn2ccnn2)CN1c1ccc(-c2ccc(C3=NO[C@H](COCCO)C3)nc2)c(F)c1 [Example 8],162,–
"CS(=O)(=O)NCCOC[C@@H]1CC(c2ccc(-c3ccc(N4C[C@H](Cn5ccnn5)OC4=O)cc3F)cn2)=NO1 [Example 13, N-(2-{[(5S)-3-(5-{2-Fluoro-4-[(5R)-2-oxo-5-(1H-1,2,3-triazol-1-ylmethyl)-1,3-oxazolidin-3-yl]phenyl}pyridin-2-yl)-4,5-dihydroisoxazole-5-yl]methoxy}ethyl)methanesulfonamide]",170,–
"CC(=O)NCCOC[C@@H]1CC(c2ccc(-c3ccc(N4C[C@H](Cn5ccnn5)OC4=O)cc3F)cn2)=NO1 [Example 14, N-(2-{[(5S)-3-(5-{2-Fluoro-4-[(5R)-2-oxo-5-(1H-1,2,3-triazol-1-ylmethyl)-1,3-oxazolidin-3-yl]phenyl}pyridin-2-yl)-4,5-dihydroisoxazole-5-yl]methoxy}ethyl)acetamide]",134,–
"N#CCOC[C@@H]1CC(c2ccc(-c3ccc(N4C[C@H](Cn5ccnn5)OC4=O)cc3F)cn2)=NO1 [Example 15, {[(5S)-3-(5-{2-Fluoro-4-[(5R)-2-oxo-5-(1H-1,2,3-triazol-1-ylmethyl)-1,3-oxazolidin-3-yl]phenyl}pyridin-2-yl)-4,5-dihydroisoxazole-5-yl]methoxy}acetonitrile]",90 to 115,–
CC(C)(O)COC[C@@H]1CC(c2ccc(-c3ccc(N4C[C@H](Cn5ccnn5)OC4=O)cc3F)cn2)=NO1 [Example 16],180 to 187,–
"CN(CCOC[C@@H]1CC(c2ccc(-c3ccc(N4C[C@H](Cn5ccnn5)OC4=O)cc3F)cn2)=NO1)CC(=O)O [Example 20, N-(2-{[(5S)-3-(5-{2-Fluoro-4-[(5R)-2-oxo-5-(1H-1,2,3-triazol-1-ylmethyl)-1,3-oxazolidin-3-yl]phenyl}pyridin-2-yl)-4,5-dihydroisoxazole-5-yl]methoxy}ethyl)-N-methylglycine]",135 to 140,–
"CC(C)(C)OC(=O)COC[C@@H]1CC(c2ccc(-c3ccc(N4C[C@H](Cn5ccnn5)OC4=O)cc3F)cn2)=NO1 [Pro-drug Example 1, tert-Butyl {[(5S)-3-(5-{2-fluoro-4-[(5R)-2-oxo-5-(1H-1,2,3-triazol-1-ylmethyl)-1,3-oxazolidin-3-yl]phenyl}pyridin-2-yl)-4,5-dihydroisoxazole-5-yl]methoxy}acetate]",186,–
"C=CCOC[C@@H]1CC(c2ccc(-c3ccc(N4C[C@H](Cn5ccnn5)OC4=O)cc3F)cn2)=NO1 [compound 2, (5R)-3-[4-(6-{(5S)-5-[(Allyloxy)methyl]-4,5-dihydroisoxazole-3-yl}pyridin-3-yl)-3-fluorophenyl]-5-(1H-1,2,3-triazol-1-ylmethyl)-1,3-oxazolidin-2-one]",162,antibacterial activity [4]: have antibacterial activity
[N-]=[N+]=NCCOC[C@@H]1CC(c2ccc(-c3ccc(N4C[C@H](Cn5ccnn5)OC4=O)cc3F)cn2)=NO1 [compound 9],148,antibacterial activity [4]: have antibacterial activity
